In patent publication US12636290B2, “BET inhibitors for modulating DUX4 expression in FSHD” (Saint Louis University, priority 2018, dated 2026):
Like-named read-outs stand apart in the source and are kept apart here.

Test system: DUX4 expression (surrogate marker MBD3L2)
Experiment: Screening: qPCR analysis of DUX4 target gene MBD3L2 in differentiating MB200 FSHD2 muscle cells
Assay type: cell-based
Details: Homo sapiens, 40 hours, DUX4 expression inferred from surrogate marker MBD3L2 expression (qPCR, normalized to RPL30)
Procedure: Cells and Cell Culture. Primary human myoblast cell lines, immortalized by retroviral transduction of cyclin-dependent kinase 4 (CDK4) and human telomerase reverse transcriptase (hTERT) (Stadler, et al., 2011), were obtained from the Fields Center at the University of Rochester (world-wide-web at urmc.rochester.edu/fields-center.aspx). Immortalized myoblasts were grown in Ham's F-10 Nutrient Mix (Gibco, Waltham, MA, USA) supplemented with 20% HyClone Fetal Bovine Serum (GE Healthcare Life Sciences, Pittsburgh, PA, USA), 100 U/100 μg penicillin/streptomycin (Gibco), 10 ng/ml recombinant human fibroblast growth factor (Promega Corporation, Madison, WI, USA) and 1 μM dexamethasone (Sigma-Aldrich). Differentiation of myoblasts into myotubes was achieved by switching the fully confluent myoblast monolayer into Dulbecco's Modified Eagle Medium (DMEM) (Gibco) containing 1% horse serum (Gibco), 100 U/100 μg penicillin/streptomycin, 10 μg/ml insulin (Sigma-Aldrich) and 10 μg/ml transferrin (Sigma-Aldrich) (HS/IT media) or DMEM:F12 Nutrient Mixture (1:1, Gibco) supplemented with 2% KnockOut Serum Replacement (Gibco), 100 U/100 μg penicillin/streptomycin, 10 μg/ml insulin and 10 μg/ml transferrin (KSR media) for 2-6 days.
Screening: qPCR analysis of DUX4 target genes MBD3L2. For screening compounds, differentiating MB200 FSHD2 muscle cells were exposed to BET inhibitors at a variety of concentrations for 40 hours to determine the effects of the drugs on DUX4 expression. Cell lysates were prepared using Cells-to-Ct Bulk Lysis Reagents (Invitrogen, Waltham, MA, USA). Gene expression was measured by quantitative polymerase chain reaction (qPCR) was carried out on a QuantStudio 5 (Applied Biosystems, Waltham, MA, USA) using TaqMan Gene Expression Assays (Applied Biosystems) and TaqMan Fast Virus 1-Step Master Mix (Invitrogen). The relative expression levels of DUX4 target gene methyl-CpG binding domain protein 3 like 2 (MBD3L2), was normalized to that of the reference gene ribosomal protein L30 (RPL30), which was included in multiplex (two gene) PCR reactions. TaqMan Gene Expression Assay ID numbers: MBD3L2, Hs00544743_m1; RPL30, Hs00265497_m1. Data is expressed as relative expression with the expression in absence of inhibitors set to one.
Analysis of MBD3L2 expression in cultured FSHD2 cells. DUX4 mRNA is present in very low levels, even in differentiating FSHD2 myoblasts, so DUX4 target gene MBD3L2 was used as a surrogate marker of DUX4 expression. FSHD2 patient derived muscle cells were analyzed to determine whether BET inhibitors affect MBD3L2 expression, indicating a reduction in DUX4 expression.

SMILES | IC50 (read-out: DUX4* MT FSHD2: IC50) [nM] | IC50 (read-out: DUX4* MT FSHD2 IC50) [nM]
C[C@@H]1C(=O)N(C)CCN1CCOc1ccc2cc(-c3cn(C)c(=O)c4[nH]ccc34)ccc2n1 [SLU-2348, (R)-4-{2-[2-(2,4-dimethyl-3-oxopiperazin-1-yl)ethoxy]quinolin-6-yl}-6-methyl-1H-pyrrolo[2,3-c]pyridin-7(6H)-one] | 140 | 140
Cn1cc(-c2ccc3ncccc3c2)c2cc[nH]c2c1=O [SLU-2298, 6-methyl-4-(quinolin-6-yl)-1H-pyrrolo[2,3-c]pyridin-7(6H)-one] | 113 | 113
C=CCn1cc(-c2ccc3nc(-c4ccc(OCCN5CCN(C)C(=O)[C@H]5C)cc4)ccc3c2)c2cc[nH]c2c1=O [SLU-2293, (R)-6-allyl-4-{2-[4-(2-(2,4-dimethyl-3-oxopiperazin-1-yl)ethoxy)phenyl]quinolin-6-yl}-1H-pyrrolo[2,3-c]pyridin-7(6H)-one] | 18 | 18
Cn1cc(-c2ccc3nc(-c4ccc(OCCN5CCOCC5)cc4)ccc3c2)c2cc[nH]c2c1=O [SLU-2234, 6-methyl-4-{2-[4-(2-morpholinoethoxy)phenyl]quinolin-6-yl}-1,6-dihydro-7H-pyrrolo[2,3-c]pyridin-7-one] | 69 | 69
CCn1cc(-c2ccc3cc(-c4ccc(OCCN5CCN(C)C(=O)[C@H]5C)cc4)ccc3n2)c2cc[nH]c2c1=O [SLU-2295, (R)-4-{6-[4-(2-(2,4-dimethyl-3-oxopiperazin-1-yl)ethoxy)phenyl]quinolin-2-yl}-6-ethyl-1H-pyrrolo[2,3-c]pyridin-7(6H)-one] | 51 | 51
CC(C)CCOc1ccc(C2CCN(c3ccc(-c4cn(C)c(=O)c5[nH]ccc45)cn3)CC2)cc1 [SLU-2124, 4-{6-[4-(4-(isopentyloxy)phenyl)piperidin-1-yl]pyridin-3-yl}-6-methyl-1H-pyrrolo[2,3-c]pyridin-7(6H)-one] | 1300 | 1300
CN1CCN(CCOc2ccc(C3CCN(c4ccc(-c5cn(C)c(=O)c6[nH]ccc56)cn4)CC3)cc2)CC1 [SLU-2114, 6-methyl-4-{6-[4-(4-(2-(4-methylpiperazin-1-yl)ethoxy)phenyl)piperidin-1-yl]pyridin-3-yl}-1H-pyrrolo[2,3-c]pyridin-7(6H)-one] | 330 | 330
Cn1cc(-c2ccc3cc(-c4ccc(OCCO)nc4)ccc3n2)c2cc[nH]c2c1=O [SLU-2232, 4-{6-[6-(2-hydroxyethoxy)pyridin-3-yl]quinolin-2-yl}-6-methyl-1H-pyrrolo[2,3-c]pyridin-7(6H)-one] | 97 | 97
CN1CCN(CCOc2ccc(C3CCN(c4ccc(-c5cn(C)c(=O)c6[nH]ccc56)cn4)CC3)cc2)CC1=O [SLU-2131, 6-methyl-4-{6-[4-(4-(2-(4-methyl-3-oxopiperazin-1-yl)ethoxy)phenyl)piperidin-1-yl]pyridin-3-yl}-1H-pyrrolo[2,3-c]pyridin-7(6H)-one] | 62 | 62
C[C@@H]1C(=O)N(C)CCN1CCOc1ccc2nc(-c3ccc(-c4cn(C)c(=O)c5[nH]ccc45)cc3)ccc2c1 [SLU-2211, (R)-4-{4-[6-(2-(2,4-dimethyl-3-oxopiperazin-1-yl)ethoxy)quinolin-2-yl]phenyl}-6-methyl-1H-pyrrolo[2,3-c]pyridin-7(6H)-one] | 62 | 62
Cn1cc(-c2ccc(N3CCC4(CCN(C(=O)CO)CC4)CC3)nc2)c2cc[nH]c2c1=O [SLU-2115, 4-{6-[9-(2-hydroxyacetyl)-3,9-diazaspiro[5.5]undecan-3-yl]pyridin-3-yl}-6-methyl-1H-pyrrolo[2,3-c]pyridin-7(6H)-one] | 97 | 97
Cn1cc(-c2ccc(N3CCC(c4ccc(OCCn5cncn5)cc4)CC3)nc2)c2cc[nH]c2c1=O [SLU-2119, 4-{6-[4-(4-(2-(1H-1,2,4-triazol-1-yl)ethoxy)phenyl)piperidin-1-yl]pyridin-3-yl}-6-methyl-1H-pyrrolo[2,3-c]pyridin-7(6H)-one] | 130 | 130
C[C@@H]1C(=O)N(C)CCN1CCOc1ccc(-c2ccc3nc(-c4cn(C(F)F)c(=O)c5[nH]ccc45)ccc3c2)cc1 [SLU-2325, (R)-6-(difluoromethyl)-4-{6-[4-(2-(2,4-dimethyl-3-oxopiperazin-1-yl)ethoxy)phenyl]quinolin-2-yl}-1H-pyrrolo[2,3-c]pyridin-7(6H)-one] | 290 | 290
C=CCn1cc(-c2ccc3cc(-c4ccc(OCCN5CCN(C)C(=O)[C@H]5C)cc4)ccc3n2)c2cc[nH]c2c1=O [SLU-2326, (R)-6-allyl-4-{6-[4-(2-(2,4-dimethyl-3-oxopiperazin-1-yl)ethoxy)phenyl]quinolin-2-yl}-1H-pyrrolo[2,3-c]pyridin-7(6H)-one] | 130 | 130
C[C@@H]1CN(C)C(=O)CN1CCOc1ccc(-c2ccc3cc(-c4cn(C)c(=O)c5[nH]ccc45)ccc3n2)cc1 [SLU-2286, (R)-4-{2-[4-(2-(2,4-dimethyl-5-oxopiperazin-1-yl)ethoxy)phenyl]quinolin-6-yl}-6-methyl-1H-pyrrolo[2,3-c]pyridin-7(6H)-one] | 63 | 63
C[C@@H]1C(=O)N(C)CCN1CCCOc1cccc(-c2ccc3cc(-c4cn(C)c(=O)c5[nH]ccc45)ccc3n2)c1 [SLU-2292, (R)-4-{2-[3-(3-(2,4-dimethyl-3-oxopiperazin-1-yl)propoxy)phenyl]quinolin-6-yl}-6-methyl-1H-pyrrolo[2,3-c]pyridin-7(6H)-one] | 25 | 25
C[C@@H]1C(=O)N(C)CCN1CCOc1ccc(-c2ccc3cc(-c4cn(C)c(=O)c5[nH]ccc45)ncc3c2)cc1 [SLU-2219, (R)-4-{7-[4-(2-(2,4-dimethyl-3-oxopiperazin-1-yl)ethoxy)phenyl]isoquinolin-3-yl}-6-methyl-1H-pyrrolo[2,3-c]pyridin-7(6H)-one] | 95 | 95
CC(=O)N1C[C@@H](C)N(CCOc2ccc(C3CCN(c4ccc(-c5cn(C)c(=O)c6[nH]ccc56)cn4)CC3)cc2)[C@@H](C)C1 [SLU-2090, 4-{6-[4-(4-(2-((2R,6S)-4-acetyl-2,6-dimethylpiperazin-1-yl)ethoxy)phenyl)piperidin-1-yl]pyridin-3-yl}-6-methyl-1H-pyrrolo[2,3-c]pyridin-7(6H)-one] | 43 | 43
C[C@@H]1C(=O)N(C)CCN1CCOc1ccc(C2CCN(c3ccc(-c4cn(C)c(=O)c5[nH]ccc45)cc3)CC2)cc1 [SLU-2212, (R)-4-{4-[4-(4-(2-(2,4-dimethyl-3-oxopiperazin-1-yl)ethoxy)phenyl)piperidin-1-yl]phenyl}-6-methyl-1H-pyrrolo[2,3-c]pyridin-7(6H)-one] | 86 | 86
Cn1cc(-c2ccc(N3CCC4(CCNC4)CC3)nc2)c2cc[nH]c2c1=O [SLU-2120, 4-[6-(2,8-diazaspiro[4.5]decan-8-yl)pyridin-3-yl]-6-methyl-1H-pyrrolo[2,3-c]pyridin-7(6H)-one] | 350 | 350
C[C@@H]1C(=O)N(C)CCN1CCOc1ccc(CCc2ccc(-c3cn(C)c(=O)c4[nH]ccc34)cc2)cc1 [SLU-2227, (R)-4-{4-[4-(2-(2,4-dimethyl-3-oxopiperazin-1-yl)ethoxy)phenethyl]phenyl}-6-methyl-1H-pyrrolo[2,3-c]pyridin-7(6H)-one] | 69 | 69
C[C@@H]1C(=O)N(C)CCN1CCOc1ccc(-c2ccc3nc(-c4cn(C)c(=O)c5[nH]ccc45)ccc3c2)cn1 [SLU-2235, (R)-4-{6-[6-(2-(2,4-dimethyl-3-oxopiperazin-1-yl)ethoxy)pyridin-3-yl]quinolin-2-yl}-6-methyl-1H-pyrrolo[2,3-c]pyridin-7(6H)-one] | 12 | 12
COc1cc(N2CCC(c3ccc(OCCN4[C@H](C)CN(C(C)=O)C[C@@H]4C)cc3)CC2)ncc1-c1cn(C)c(=O)c2[nH]ccc12 [SLU-2117, 4-{6-[4-(4-(2-((2R,6S)-4-acetyl-2,6-dimethylpiperazin-1-yl)ethoxy)phenyl)piperidin-1-yl]-4-methoxypyridin-3-yl}-6-methyl-1H-pyrrolo[2,3-c]pyridin-7(6H)-one] | 91 | 91
